Columns and labels:
Format in all cases: cell-based
[1] = system: variants of SARS-CoV-2 (B1.1.7, B.1.351, B.1.617.2, and B.1.617.1); details: for prevention of infection of all clades: alone at their highest doses; for reduction of SARS-CoV-2 infection in all lineages: alone or in combination, lowest given concentration
B.1.351 (β-variant) = assay: SARS-CoV-2 inhibition assay in Vero E6 cells, B.1.351; details: 0.99 μM
B.1.617 (κ-variant) = assay: SARS-CoV-2 inhibition assay in Vero E6 cells, B.1.617; details: 0.99 μM
B.1.1.7 (α-variant) = assay: SARS-CoV-2 inhibition assay in Vero E6 cells, B.1.1.7; details: 0.99 μM
B.1.617.2 (δ-variant) = assay: SARS-CoV-2 inhibition assay in Vero E6 cells, B.1.617.2; details: 0.99 μM

CC#CCn1c(N2CCC[C@@H](N)C2)nc2c1c(=O)n(Cc1nc(C)c3ccccc3n1)c(=O)n2C [Linagliptin, linagliptin]
inhibitory effectiveness against all VOCs [1]: dose-dependent inhibitory effectiveness
prevention of infection of all clades [1]: entirely prevent the infection of all clades
reduction of SARS-CoV-2 infection in all lineages [1]: 6–10 folds

N[C@@H](CC(=O)N1CCn2c(nnc2C(F)(F)F)C1)Cc1cc(F)c(F)cc1F [Sitagliptin, sitagliptin]
effect on β-SARS-CoV-2 growth (B.1.351 (β-variant)): partially inhibit
effect on κ-SARS-CoV-2 growth (B.1.617 (κ-variant)): partially inhibit
effect on α-SARS-CoV-2 growth (B.1.1.7 (α-variant)): partially inhibit
effect on δ-SARS-CoV-2 growth (B.1.617.2 (δ-variant)): unable to prevent even the partial growth
inhibition of viral growth among all variants ([1]; 1.98 μM): 6–7 folds
prevention of infection of all clades [1]: entirely prevent the infection of all clades
reduction of SARS-CoV-2 infection in all lineages [1]: 6–10 folds

From PMC10293653 (International Journal of Biological Macromolecules, 2023)
